According to patent US20220323761A1, “METHOD FOR INDUCING HIBERNATION-LIKE STATE AND DEVICE SAME” (University of Tsukuba, priority 2019, published 2022):

Assays:
Assay type in all cases: in vivo
hM3Dq in Q-neurons = target: T1, hM3Dq in Q-neurons (Homo sapiens, UniProt P20309, A239G/Y149C); test: Estimation of thermoregulatory parameters G, H and TR during CNO-induced QIH in Q-hM3D mice
T1 construct: mCherry (C); expressed in transfected cells; host or cells: QRFP-producing (Q) neurons of Qrfp-iCre mice transduced in vivo with AAV10-EF1α-DIO-hM3Dq-mCherry
T1 sequence (P20309 whole entry Y149C/A239G, the tested form may be a part): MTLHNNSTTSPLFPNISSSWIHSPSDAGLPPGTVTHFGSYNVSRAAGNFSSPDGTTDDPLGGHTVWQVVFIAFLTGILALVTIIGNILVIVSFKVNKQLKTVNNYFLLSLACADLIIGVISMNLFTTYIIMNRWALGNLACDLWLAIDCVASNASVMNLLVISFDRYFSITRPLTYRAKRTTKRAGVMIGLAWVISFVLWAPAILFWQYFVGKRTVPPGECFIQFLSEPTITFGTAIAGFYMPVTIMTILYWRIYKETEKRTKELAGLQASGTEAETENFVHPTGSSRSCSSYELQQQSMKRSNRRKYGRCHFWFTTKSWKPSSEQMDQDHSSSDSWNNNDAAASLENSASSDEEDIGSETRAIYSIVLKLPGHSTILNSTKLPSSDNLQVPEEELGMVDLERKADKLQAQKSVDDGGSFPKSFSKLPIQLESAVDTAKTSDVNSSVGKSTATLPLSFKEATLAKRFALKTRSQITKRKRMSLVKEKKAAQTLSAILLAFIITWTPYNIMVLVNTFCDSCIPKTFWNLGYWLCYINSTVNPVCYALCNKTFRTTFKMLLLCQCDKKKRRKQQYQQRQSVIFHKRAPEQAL
Excerpt: In order to record the core body temperature, oxygen consumption amount, EEG, ECG, and respiratory patterns, each animal was housed in a temperature controlled chamber (HC-100, Shin Factory or LP-400P-AR, Nippon Medical & Chemical Instruments Co., Ltd.). In order to continuously record the TB (intraperitoneal temperature), a telemetry temperature sensor (TA11TA-F10, DSI) was implanted into the animal's abdominal cavity under general inhalation anesthesia at least 7 days prior to the recording. The VO 2 and carbon dioxide discharge rate (VCO2) of the animal were continuously recorded using a respiratory gas analyzer (ARCO-2000 mass spectrometer, ARCO System). The respiratory quotient was calculated from the ratio of VCO2/VO2.
(§1) The Dreadd agonist CNO (clozapine N-oxide, Abcam, ab141704) was dissolved in physiological saline at a dose of 100 μg/mL, and the solution was frozen at −20° C. The CNO solution was thawed on site and then administered to each mouse intraperitoneally at a dose of 1 mg/kg. The adenosineAl receptor agonist CHA (N^6-cyclohexyl adenosine, Sigma-Aldrich, C9901) was dissolved in physiological saline at a concentration of 250 μg/mL, and the solution was administered intraperitoneally to each mouse at a dose of 2.5 mg/kg.
To evaluate the thermoregulatory system under QIH and normal conditions, the heat loss and heat production of the animals were described in a hierarchical multilayer model (FIG. 3c to FIG. 3k, code folder QIH_GTRH). Three parameters of G, TR and H under two metabolic conditions, that is, normal and QIH conditions, were estimated from a metabolically stable state of the animals at various TAs. The detailed method has been previously described^3. In summary, a linear model formed from the controllable parameter TA and the observable parameters TB and VO2 was fitted to the experimental results for both TB and VO2 using TA as a predictor having normal distribution noise. Next, G, TR, and H were estimated using the post-distribution of the slope and intercept coefficients for each model. […]

[1] = target: T2, hM3Dq in iCre-positive neurons (Homo sapiens, UniProt P20309, A239G/Y149C); test: Infrared thermography and behaviour of Qrfp-iCre; Rosa26^dreaddm3 mice after IP CNO
T2 construct: mCherry (C); expressed in transfected cells; host or cells: iCre-expressing neurons of Qrfp-iCre; Rosa26^dreaddm3 mice (CAG-hM3Dq-mCherry at the Rosa26 locus, in vivo)
T2 sequence (P20309 whole entry Y149C/A239G): as the sequence (P20309 whole entry Y149C/A239G, the tested form may be a part) above
Excerpt: For thermographic analysis, the mice were inserted into an experiment cage (25×15×10 cm) and monitored using an infrared thermal imaging camera (InfReC R500 EX; Nippon Avionics) placed 30 cm above the cage floor. To clearly detect the surface temperature, the back hair was removed using hair clippers one day prior to the start of the experiment. Thermograms of DREADD and optogenetic experiments were collected at 0.5 Hz and 1 Hz, respectively, and analyzed using the InfReC Analyzer NS9500 Professional software (Nippon Avionics). The highest temperature of one frame was used as the TS of the animal (FIG. 1d).
as §1

[2] = test system: Q-neurons in the AVPe, MPA and Pe; test: Fos immunostaining of brain sections of Q-hM3D mice after CNO IP; conditions: 90 minutes after CNO IP
Procedure: Each mouse was deeply anesthetized with isoflurane, transcardially perfused with 10% sucrose in water, and then perfused with ice-cooled 4% paraformaldehyde (4% PFA) in a 0.1 M phosphate buffer having a pH of 7.4, and the brain was removed. After being left in the 4% PFA overnight at 4° C., the brain was fixed, incubated overnight at 4° C. in a 0.1 M phosphate buffered saline (PBS) having a pH of 7.4, in 30% sucrose, immersed in a Tissuue-Tek O.C.T. compound (Sakura) in a cryomold, and frozen at −80° C. until sectioned. With the use of a cryostat (CM1860, Leica), the brain was sliced into coronal sections in four equal series every 50 μm, collected in a 6-well plate filled with ice-cooled PBS, and washed three times with PBS at room temperature (RT). Unless otherwise specified, the following incubation process was carried out while gently shaking on an orbital shaker. […]
The primary antibodies used in this research were rabbit anti-cFos (1:4000, ABE457, Millipore), goat anti-mCherry (1:15000, AB0040-200, SICGEN), rat anti-GFP (1:5000, 04404-84, NACALAI TESQUE), mouse anti-TH (1:1000, sc-25269, Santa Cruz Biotechnology), mouse anti-orexin A (1:200, sc-80263, Santa Cruz Biotechnology), and rabbit anti-MCH (1:2000, M8440, SIGMA). […] Brain regions were determined using a mouse brain map from Paxinos and Franklin^36.

C[N+]1([O-])CCN(C2=Nc3cc(Cl)ccc3Nc3ccccc32)CC1 [CNO, clozapine N-oxide]
reduction in H at each median (hM3Dq in Q-neurons; QIH versus normal state): 95.3%
TB and VO2 versus control at every TA (hM3Dq in Q-neurons; eleven hours after IP injection, TA 8-32° C.): low TB and VO2
difference in TR at each median (hM3Dq in Q-neurons; normal versus QIH): 8.41 °C
duration of TS reduction [1]: approximately 12 hours
onset of TS reduction after administration [1]: approximately 5 minutes
onset of sustained immobility after injection ([1]; intraperitoneal CNO): approximately 30 minutes
surface body temperature (TS) effect ([1]; thermography camera): significantly sustained hypothermia
in vivo excitation of neurons (mCherry and Fos double positive) [2]: confirmed
